The text below walks through data of publication PMC9544171, “Glucose‐dependent insulinotropic polypeptide receptor antagonist treatment causes a reduction in weight gain in ovariectomised high fat diet‐fed mice” (British Journal of Pharmacology, 2022).

Where a SMILES comes first, the peptide text is derived from it. The star is where a group is joined. C16 diacid = O=C(O)CCCCCCCCCCCCCCC(=O)*

One assay concerns the target T1, mouse GIP receptor (Mus musculus, UniProt Q0P543).
T1 construct: host or cells: COS-7
T1 sequence (Q0P543 19-460): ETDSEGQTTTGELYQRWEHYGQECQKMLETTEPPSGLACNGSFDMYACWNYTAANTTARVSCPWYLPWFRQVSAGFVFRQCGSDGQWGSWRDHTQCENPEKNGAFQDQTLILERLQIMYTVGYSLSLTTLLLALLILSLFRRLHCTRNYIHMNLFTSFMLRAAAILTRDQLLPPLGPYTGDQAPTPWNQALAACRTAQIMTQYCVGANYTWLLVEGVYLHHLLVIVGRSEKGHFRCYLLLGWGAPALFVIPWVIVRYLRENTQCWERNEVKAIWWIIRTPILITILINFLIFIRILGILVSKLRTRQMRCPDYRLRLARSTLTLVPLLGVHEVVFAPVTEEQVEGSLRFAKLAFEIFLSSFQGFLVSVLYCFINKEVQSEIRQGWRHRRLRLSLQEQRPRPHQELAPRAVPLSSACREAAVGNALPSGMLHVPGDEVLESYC
The experiment in a line: cAMP accumulation, antagonism of mouse GIP(1‐42) in transfected COS‐7 cells. It is filed as cell-based. The protocol: COS‐7 cells were cultured at 10% CO2 and 37°C in Dulbecco's Modified Eagle Medium 1885 supplemented with 10% foetal bovine serum, 2‐mM glutamine, 180‐units ml^−1 penicillin and […] streptomycin. Transient transfection of the cells with either human or mouse GIP receptor was performed using the calcium phosphate precipitation method as previously described (van der Velden et al., [2021]). A second set of cells was transiently transfected with either mouse GLP‐1 or GLP‐2 receptor. Following the day after transfection, the cells were seeded in white 96‐well plates with a density of 35.000 cells per well. The next day the assay was initiated by washing the cells with HEPES buffered saline (HBS) followed by an incubation step with HBS and 1‐mM 3‐isobutyl‐1‐methylxanthine for 30 min at 37°C. For agonist studies, the ligands were then added and incubated for an additional 30 min at 37°C. To test for antagonistic properties, the cells were first preincubated for 10 min with the antagonist with subsequent addition of the agonist and incubated for an additional 20 min. The HitHunter® cAMP assay (Eurofins DiscoverX, Fremont, USA) was carried out according to the manufacturer's protocol. Luminescence was measured by PerkinElmer™ Envision 2014 Multilabel Reader.
To facilitate comparisons of assay outputs (cAMP assays), the results (of duplicate measurements) were normalized, with the response to 10 pM of GIP(1‐42) set as 100%. All ligand concentrations are reported as log‐transformed. The IC50 log values can be found in Figure 1. In Figure 3c, we have subtracted glucose levels from baseline to show the net differences in glucose levels in our different treatment groups. […]
Results are presented as mean ± SE. Data were analysed with one‐way and two‐way analysis of variance (ANOVA) with Tukey's or Sidak multiple comparisons test and Student's unpaired t tests where appropriate. […] For the in vitro data IC50 values were determined by nonlinear regression using GraphPad Prism 9 (San Diego, California, USA). […]

The test system of assay [1] is Female ovariectomised C57Bl6/J mice. The experiment in a line: Terminal plasma adiponectin, triglyceride and glycerol. It is filed as in vivo, mouse. Conditions: 8 weeks of 300 nmol·kg−1 s.c. daily. From the text:
A week after ovariectomy, at 10 weeks of age, animals were randomized into groups and placed on a 60 kcal% HFD (HFD, D12492, Research Diets, New Brunswick, NJ, USA) or a control diet (10 kcal% fat, D12450J, Research Diets) for 8 weeks. Group sizes were as follows: Vehicle/control diet, n = 12; mGIPAnt‐1/control diet, n = 12; Vehicle/HFD, n = 11; mGIPAnt‐1/HFD, n = 12. The reduction of animal numbers in group Vehicle/HFD was due to unexpected loss of an animal. Animals received a daily s.c. injection at 4:30 PM with mGIPAnt‐1 (300‐nmol·kg^−1) or vehicle. Body weight and body composition were assessed weekly (LF90II body composition analyzer, Bruker, Billerica, MA, USA). On the final experimental day, animals were anaesthetized with an intraperitoneal injection of 90 mg·kg^−1 ketamine and 10‐mg·kg^−1 xylazine. The microchip was quickly removed from HM‐2 cage animals and a final body composition measurement was performed on all animals. A terminal retro‐orbital blood sample was taken, mice were killed through cervical dislocation and tissues were quickly dissected and weighed.
Insulin levels in intraperitoneal glucose tolerance test and oral glucose tolerance test plasma samples were measured using a mouse insulin ELISA (catalogue no. 10‐1247‐10; Mercodia AB, Uppsala, Sweden). Adiponectin levels in terminal plasma samples were measured using a mouse adiponectin ELISA kit (catalogue no. 80569, Crystal Chem, Elk Grove Village, IL, USA). Adiponectin samples were carefully diluted in kit‐specific assay buffer. The manufacturer's instructions were followed closely.
Triglyceride and free glycerol levels in terminal plasma samples were determined using a triglyceride and free glycerol kit (TR0100‐1KT, Sigma‐Aldrich, St. Louis, MO, USA).

Take `CC[C@H](C)[C@H](NC(=O)[C@H](CO)NC(=O)[C@H](Cc1ccc(O)cc1)NC(=O)[C@H](CC(=O)O)NC(=O)[C@H](CO)NC(=O)[C@@H](NC(=O)[C@H](Cc1ccccc1)NC(=O)[C@@H](NC(=O)CNC(=O)[C@@H](N)CCC(=O)O)[C@@H](C)O)[C@@H](C)CC)C(=O)N[C@@H](C)C(=O)N[C@@H](CCSC)C(=O)N[C@@H](CC(=O)O)C(=O)N[C@@H](CCCCN)C(=O)N[C@H](C(=O)N[C@@H](CCCCNC(=O)CCCCCCCCCCCCCCC(=O)O)C(=O)N[C@@H](CCC(N)=O)C(=O)N[C@@H](CCC(N)=O)C(=O)N[C@@H](CC(=O)O)C(=O)N[C@@H](Cc1ccccc1)C(=O)N[C@H](C(=O)N[C@@H](CC(N)=O)C(=O)N[C@@H](Cc1c[nH]c2ccccc12)C(=O)N[C@@H](CC(C)C)C(=O)N[C@@H](CC(C)C)C(=O)N[C@@H](C)C(=O)N[C@@H](CCC(N)=O)C(=O)N[C@@H](CCCCN)C(=O)NCC(=O)N[C@@H](CCCCN)C(=O)N[C@@H](CCCCN)C(=O)N[C@@H](CC(N)=O)C(=O)N[C@@H](CC(=O)O)C(=O)N[C@@H](Cc1c[nH]c2ccccc12)C(=O)N[C@@H](CCCCN)C(=O)N[C@@H](Cc1c[nH]cn1)C(=O)N[C@@H](CC(N)=O)C(=O)O)C(C)C)[C@@H](C)CC` [mGIPAnt‐1] (H-EGTFISDYSIAMDKIK(C16 diacid)QQDFVNWLLAQKGKKNDWKHN-OH): the concentration for half-maximal inhibition (IC50) at mouse GIP receptor (COS‐7 transiently transfected with mouse GIPR, 10 min preincubation with antagonist, then mouse GIP(1‐42) at 50%–80% of Emax for 20 min, HitHunter cAMP, Hill slope −1.0, n = 5 independent experiments, read-out: IC50, inhibition of mGIP‐induced cAMP accumulation, mouse GIPR) came out at 269 nM. Besides, the “potency relative to mGIP(3‐30)NH2 on the mouse GIP receptor” value at mouse GIP receptor (ratio of IC50 813 nM / 269 nM) is listed as 3 fold. In assay [1], the terminal plasma glycerol result was “did not significantly affect” and the terminal plasma triglyceride result was “did not significantly affect”. The terminal plasma adiponectin result in assay [1] (ELISA) is recorded as “did not significantly affect”. For the same compound, in assay [1] (did not reach significance), the “terminal plasma glycerol, HFD versus Vehicle/HFD” value is “trend towards increased glycerol levels”.

For orientation: IC50 means the point on the concentration scale where inhibition reaches its midpoint.
